# Data: patent US9125913B2, “Bcl-2-selective apoptosis-inducing agents for the treatment of cancer and immune diseases” (AbbVie Inc., priority 2008, dated 2015)
# System: GST-Bcl-2
# Assay: TR-FRET binding assay, Bcl-2
# Conditions: TR-FRET Ki values
# Outline: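 Ki values come from Wang's competitive-binding equation applied to TR-FRET signal (excitation 340/35 nm; emission 520/525 nm F-Bak peptide, 495/510 nm Tb antibody). Protein, probe and antibody incubated with compound 3 h at room temperature; dilution series began at 50 μM as 2× stock in 10% DMSO.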
row,SMILES,Binding selectivity ratio (Bcl-XL Ki/Bcl-2 Ki)
1,"CC1(C)CCC(CN2CCN(c3ccc(C(=O)NS(=O)(=O)c4ccc(NCCCN5CCOCC5)c(S(=O)(=O)C(F)(F)F)c4)c(Oc4ccc5[nH]ccc5c4)c3)CC2)=C(c2ccc(Cl)cc2)C1 [EXAMPLE 348, 4-(4-{[2-(4-chlorophenyl)-4,4-dimethylcyclohex-1-en-1-yl]methyl}piperazin-1-yl)-2-(1H-indol-5-yloxy)-N-({4-[(3-morpholin-4-ylpropyl)amino]-3-[(trifluoromethyl)sulfonyl]phenyl}sulfonyl)benzamide]",97.1
2,"CC1(C)CCC(CN2CCN(c3ccc(C(=O)NS(=O)(=O)c4ccc(NCCCN5CCOCC5)c(S(=O)(=O)C(F)(F)F)c4)c(Oc4cccc5[nH]ccc45)c3)CC2)=C(c2ccc(Cl)cc2)C1 [EXAMPLE 349, 4-(4-{[2-(4-chlorophenyl)-4,4-dimethylcyclohex-1-en-1-yl]methyl}piperazin-1-yl)-2-(1H-indol-4-yloxy)-N-({4-[(3-morpholin-4-ylpropyl)amino]-3-[(trifluoromethyl)sulfonyl]phenyl}sulfonyl)benzamide]",51.9
3,"CC1(C)CCC(CN2CCN(c3ccc(C(=O)NS(=O)(=O)c4cnc(NCC5CCOCC5)c(Br)c4)c(Oc4ccc5[nH]ccc5c4)c3)CC2)=C(c2ccc(Cl)cc2)C1 [EXAMPLE 350, N-({5-bromo-6-[(tetrahydro-2H-pyran-4-ylmethyl)amino]pyridin-3-yl}sulfonyl)-4-(4-{[2-(4-chlorophenyl)-4,4-dimethylcyclohex-1-en-1-yl]methyl}piperazin-1-yl)-2-(1H-indol-5-yloxy)benzamide]",>110.6
4,"CC1(C)CCC(CN2CCN(c3ccc(C(=O)NS(=O)(=O)c4ccc(NCCN5CCOCC5)c(S(=O)(=O)C(F)(F)F)c4)c(Oc4ccc5[nH]ccc5c4)c3)CC2)=C(c2ccc(Cl)cc2)C1 [EXAMPLE 351, 4-(4-{[2-(4-chlorophenyl)-4,4-dimethylcyclohex-1-en-1-yl]methyl}piperazin-1-yl)-2-(1H-indol-5-yloxy)-N-({4-[(2-morpholin-4-ylethyl)amino]-3-[(trifluoromethyl)sulfonyl]phenyl}sulfonyl)benzamide]",>418.7
5,"CC1(C)CCC(CN2CCN(c3ccc(C(=O)NS(=O)(=O)c4cnc(NCC5CCOCC5)c(C#N)c4)c(Oc4ccc5[nH]ccc5c4)c3)CC2)=C(c2ccc(Cl)cc2)C1 [EXAMPLE 352, 4-(4-{[2-(4-chlorophenyl)-4,4-dimethylcyclohex-1-en-1-yl]methyl}piperazin-1-yl)-N-({5-cyano-6-[(tetrahydro-2H-pyran-4-ylmethyl)amino]pyridin-3-yl}sulfonyl)-2-(1H-indol-5-yloxy)benzamide]",>96.7
6,"CN1CCC(Oc2ccc(S(=O)(=O)NC(=O)c3ccc(N4CCN(CC5=C(c6ccc(Cl)cc6)CC(C)(C)CC5)CC4)cc3Oc3ccc4[nH]ccc4c3)cc2[N+](=O)[O-])CC1 [EXAMPLE 353, 4-(4-{[2-(4-chlorophenyl)-4,4-dimethylcyclohex-1-en-1-yl]methyl}piperazin-1-yl)-2-(1H-indol-5-yloxy)-N-({4-[(1-methylpiperidin-4-yl)oxy]-3-nitrophenyl}sulfonyl)benzamide]",>2260.0
7,"CN1CCC(COc2ccc(S(=O)(=O)NC(=O)c3ccc(N4CCN(CC5=C(c6ccc(Cl)cc6)CC(C)(C)CC5)CC4)cc3Oc3ccc4[nH]ccc4c3)cc2[N+](=O)[O-])CC1 [EXAMPLE 354, 4-(4-{[2-(4-chlorophenyl)-4,4-dimethylcyclohex-1-en-1-yl]methyl}piperazin-1-yl)-2-(1H-indol-5-yloxy)-N-({4-[(1-methylpiperidin-4-yl)methoxy]-3-nitrophenyl}sulfonyl)benzamide]",148.8
8,"O=C(NS(=O)(=O)c1ccc(NCC2CCOCC2)c([N+](=O)[O-])c1)c1ccc(N2CCN(CC3=C(c4ccc(Cl)cc4)CCN(CCCO)C3)CC2)cc1Oc1cccc2[nH]ccc12 [EXAMPLE 355, 4-(4-{[4-(4-chlorophenyl)-1-(3-hydroxypropyl)-1,2,5,6-tetrahydropyridin-3-yl]methyl}piperazin-1-yl)-2-(1H-indol-4-yloxy)-N-({3-nitro-4-[(tetrahydro-2H-pyran-4-ylmethyl)amino]phenyl}sulfonyl)benzamide]",>5489.5
9,"CC1(C)CCC(CN2CCN(c3ccc(C(=O)NS(=O)(=O)c4ccc(NCC5CCN(C(=O)OCc6ccccc6)CC5)c([N+](=O)[O-])c4)c(Oc4ccc5[nH]ccc5c4)c3)CC2)=C(c2ccc(Cl)cc2)C1 [EXAMPLE 356, benzyl 4-({[4-({[4-(4-{[2-(4-chlorophenyl)-4,4-dimethylcyclohex-1-en-1-yl]methyl}piperazin-1-yl)-2-(1H-indol-5-yloxy)benzoyl]amino}sulfonyl)-2-nitrophenyl]amino}methyl)piperidine-1-carboxylate]",>131.6
10,"CC1(C)CCC(CN2CCN(c3ccc(C(=O)NS(=O)(=O)c4ccc(OCC5CCOCC5)c(C(N)=O)c4)c(Oc4ccc5[nH]ccc5c4)c3)CC2)=C(c2ccc(Cl)cc2)C1 [EXAMPLE 357, N-{[3-(aminocarbonyl)-4-(tetrahydro-2H-pyran-4-ylmethoxy)phenyl]sulfonyl}-4-(4-{[2-(4-chlorophenyl)-4,4-dimethylcyclohex-1-en-1-yl]methyl}piperazin-1-yl)-2-(1H-indol-5-yloxy)benzamide]",>493.9
11,"O=C(NS(=O)(=O)c1ccc(NC2CCN(C3CCOCC3)CC2)c([N+](=O)[O-])c1)c1ccc(N2CCN(Cc3ccc(C(F)(F)F)cc3-c3ccc(Cl)cc3)CC2)cc1Oc1ccc2[nH]ccc2c1 [EXAMPLE 358, 4-(4-{[4′-chloro-5-(trifluoromethyl)-1,1′-biphenyl-2-yl]methyl}piperazin-1-yl)-2-(1H-indol-5-yloxy)-N-({3-nitro-4-[(1-tetrahydro-2H-pyran-4-ylpiperidin-4-yl)amino]phenyl}sulfonyl)benzamide]",>121.8
12,"CC(C)(C)c1ccc(CN2CCN(c3ccc(C(=O)NS(=O)(=O)c4ccc(NC5CCN(C6CCOCC6)CC5)c([N+](=O)[O-])c4)c(Oc4ccc5[nH]ccc5c4)c3)CC2)c(-c2ccc(Cl)cc2)c1 [EXAMPLE 359, 4-{4-[(5-tert-butyl-4′-chloro-1,1′-biphenyl-2-yl)methyl]piperazin-1-yl}-2-(1H-indol-5-yloxy)-N-({3-nitro-4-[(1-tetrahydro-2H-pyran-4-ylpiperidin-4-yl)amino]phenyl}sulfonyl)benzamide]",>49.0
13,"Cn1cncc1CNc1ccc(S(=O)(=O)NC(=O)c2ccc(N3CCN(CC4=C(c5ccc(Cl)cc5)CC(C)(C)CC4)CC3)cc2Oc2ccc3[nH]ccc3c2)cc1[N+](=O)[O-] [EXAMPLE 360, 4-(4-{[2-(4-chlorophenyl)-4,4-dimethylcyclohex-1-en-1-yl]methyl}piperazin-1-yl)-2-(1H-indol-5-yloxy)-N-[(4-{[(1-methyl-1H-imidazol-5-yl)methyl]amino}-3-nitrophenyl)sulfonyl]benzamide]",633.9
14,"CC1(C)CCC(CN2CCN(c3ccc(C(=O)NS(=O)(=O)c4ccc(S(=O)(=O)N5CCOCC5)cc4)c(Oc4ccc5[nH]ccc5c4)c3)CC2)=C(c2ccc(Cl)cc2)C1 [EXAMPLE 361, 4-(4-{[2-(4-chlorophenyl)-4,4-dimethylcyclohex-1-en-1-yl]methyl}piperazin-1-yl)-2-(1H-indol-5-yloxy)-N-{[4-(morpholin-4-ylsulfonyl)phenyl]sulfonyl}benzamide]",>92.6
15,"CC1(C)CCC(CN2CCN(c3ccc(C(=O)NS(=O)(=O)c4ccc(NN5CCS(=O)(=O)CC5)c([N+](=O)[O-])c4)c(Oc4ccc5[nH]ccc5c4)c3)CC2)=C(c2ccc(Cl)cc2)C1 [EXAMPLE 362, 4-(4-{[2-(4-chlorophenyl)-4,4-dimethylcyclohex-1-en-1-yl]methyl}piperazin-1-yl)-N-({4-[(1,1-dioxidothiomorpholin-4-yl)amino]-3-nitrophenyl}sulfonyl)-2-(1H-indol-5-yloxy)benzamide]",3548.2
16,"CC1(C)CCC(CN2CCN(c3ccc(C(=O)NS(=O)(=O)c4ccc(NC5CCC(N6CCOCC6)CC5)c([N+](=O)[O-])c4)c(Oc4ccc5[nH]ccc5c4)c3)CC2)=C(c2ccc(Cl)cc2)C1 (stereo not shown) [EXAMPLE 363, 4-(4-{[2-(4-chlorophenyl)-4,4-dimethylcyclohex-1-en-1-yl]methyl}piperazin-1-yl)-2-(1H-indol-5-yloxy)-N-({4-[(4-morpholin-4-ylcyclohexyl)amino]-3-nitrophenyl}sulfonyl)benzamide]",>3670.5
17,"CC1(C)CCC(CN2CCN(c3ccc(C(=O)NS(=O)(=O)c4cnc(OCC5CCOCC5)c(Br)c4)c(Oc4cccc5[nH]ccc45)c3)CC2)=C(c2ccc(Cl)cc2)C1 [EXAMPLE 364, N-{[5-bromo-6-(tetrahydro-2H-pyran-4-ylmethoxy)pyridin-3-yl]sulfonyl}-4-(4-{[2-(4-chlorophenyl)-4,4-dimethylcyclohex-1-en-1-yl]methyl}piperazin-1-yl)-2-(1H-indol-4-yloxy)benzamide]",12197.3
18,"CC1(C)CCC(CN2CCN(c3ccc(C(=O)NS(=O)(=O)c4cnc(NCC5CCOCC5)c(-c5nccs5)c4)c(Oc4cccc5[nH]ccc45)c3)CC2)=C(c2ccc(Cl)cc2)C1 [EXAMPLE 365, 4-(4-{[2-(4-chlorophenyl)-4,4-dimethylcyclohex-1-en-1-yl]methyl}piperazin-1-yl)-2-(1H-indol-4-yloxy)-N-{[6-[(tetrahydro-2H-pyran-4-ylmethyl)amino]-5-(1,3-thiazol-2-yl)pyridin-3-yl]sulfonyl}benzamide]",>612.9
19,"CC1(C)CCC(CN2CCN(c3ccc(C(=O)NS(=O)(=O)c4ccc(NCC5CCOCC5)c(C#N)c4)c(Oc4cccc5[nH]ccc45)c3)CC2)=C(c2ccc(Cl)cc2)C1 [EXAMPLE 366, 4-(4-{[2-(4-chlorophenyl)-4,4-dimethylcyclohex-1-en-1-yl]methyl}piperazin-1-yl)-N-({3-cyano-4-[(tetrahydro-2H-pyran-4-ylmethyl)amino]phenyl}sulfonyl)-2-(1H-indol-4-yloxy)benzamide]",>121.0
